Consider 2 molecules from paper PMC7730263, “Function and Regulation of the Pyruvate Transporter CstA in Escherichia coli” (International Journal of Molecular Sciences, 2020).

In one data set the target is T1, CstA (CstA-6His) (Escherichia coli, UniProt P15078).
T1 construct: full-length, 701 residues, 6His tag, from plasmid pBAD24-cstA6H (uninduced) in intact E. coli MG1655 ΔbtsT ΔcstA ΔyhjX cells; inner membrane protein, TC# 2.A.114
As to the kind of experiment: competition with […]pyruvate uptake into intact cells, rapid filtration. It is filed as cell-based. Particulars: 1 mM competitor against 10 µM [14C]pyruvate; Tris/MES pH 7.5, 5 mM MgCl2, 15 °C; competitor for the pyruvate site.

Substrate in data set [1]: CC(=O)C(=O)O
As to the kind of experiment: cells, lysate or membranes. In kind it is cell-based, Escherichia coli. Particulars: labelled compound, intact cells of 3Δ mutant with p-cstA, Tris/MES pH 7.5, 5 mM MgCl2, 15 °C, background of 3Δ mutant subtracted, proton-gradient driven.

As to `O=C(O)C(=O)CBr` [Br-pyruvate], the “competition with [14C]pyruvate uptake into intact cells, rapid filtration” value at CstA (CstA-6His) is recorded as “Only pyruvate itself or Br-pyruvate (a synthetic analogue) were found to act as competitors”.

B1: CstA (CstA-6His) (Escherichia coli K-12) (protein)
chain: MNKSGKYLVWTVLSVMGAFALGYIALNRGEQINALWIVVASVCIYLIAYRFYGLYIAKNVLAVDPTRMTPAVRHNDGLDYVPTDKKVLFGHHFAAIAGAGPLVGPVLAAQMGYLPGMIWLLAGVVLAGAVQDFMVLFVSTRRDGRSLGELVKEEMGPTAGVIALVACFMIMVIILAVLAMIVVKALTHSPWGTYTVAFTIPLALFMGIYLRYLRPGRIGEVSVIGLVFLIFAIISGGWVAESPTWAPYFDFTGVQLTWMLVGYGFVAAVLPVWLLLAPRDYLSTFLKIGTIVGLAVGILIMRPTLTMPALTKFVDGTGPVWTGNLFPFLFITIACGAVSGFHALISSGTTPKMLANEGQACFIGYGGMLMESFVAIMALVSACIIDPGVYFAMNSPMAVLAPAGTADVVASAAQVVSSWGFSITPDTLNQIASEVGEQSIISRAGGAPTLAVGMAYILHGALGGMMDVAFWYHFAILFEALFILTAVDAGTRAARFMLQDLLGVVSPGLKRTDSLPANLLATALCVLAWGYFLHQGVVDPLGGINTLWPLFGIANQMLAGMALMLCAVVLFKMKRQRYAWVALVPTAWLLICTLTAGWQKAFSPDAKVGFLAIANKFQAMIDSGNIPSQYTESQLAQLVFNNRLDAGLTIFFMVVVVVLALFSIKTALAALKDPKPTAKETPYEPMPENVEEIVAQAKGAH
notes: full-length, 701 residues, 6His tag, from plasmid pBAD24-cstA6H (uninduced) in intact E. coli MG1655 ΔbtsT ΔcstA ΔyhjX cells; inner membrane protein, TC# 2.A.114
Consider B1, for which the Km in data set [1] stood at 242 µM.
